Broadly, the melting point is the temperature, or range, at which the solid turns liquid. Compound `CCN(CC)C(=N)NC(=O)c1ccc(C2=N[C@@H]3CCCC[C@@H]3c3cc(OC)c(OC)cc32)cc1` [Compound 1, N′-{-[4-((4aR,10bR)-8,9-Dimethoxy-1,2,3,4,4a,10b-hexahydrophenanthridin-6yl)-phenyl]-methanoyl}-N,N-diethylquanidine] came in with a melting point of 132 to 135 °C.
Turning to `COc1cc2c(cc1OC)C1CCCCC1N=C2c1ccc(C(=O)NC(=N)N2CCN(C)CC2)cc1` (stereo not drawn) [Compound 5], the melting point was determined as 133 °C.
For `COc1cc2c(cc1OC)C1CCCCC1N=C2c1ccc(C(=O)NC(=N)N2CCCC2)cc1` [Compound 9, 4-((4aR,10bR)-8,9-Dimethoxy-1,2,3,4,4a.10b-hexahydro-phenanthridin-6-yl)-N-(1-imino-1-pyrrolidin-1-yl-methyl)-benzamide], the melting point was 126 °C.
Next, `COc1cc2c(cc1OC)[C@H]1CCCC[C@H]1N=C2c1ccc(C(=O)NC(=N)n2nc(C)cc2C)cc1` [Compound 11, 4((4aR,10bR)-8,9-Dimethoxy-1,2,3,4,4a,10b-hexahydro-phenanthridin-6-yl)-N-[1-(3,5-dimethyl-pyrazol-1-yl)-1-imino-methyl]-benzamide]: 179 to 180 °C; `CCN(CC)C(=N)NC(=O)c1cccc(C2=NC3CCCCC3c3cc(OC)c(OC)cc32)c1` [Compound 12, N′-{1[3-((4aR,10bR)-8,9-Dimethoxy-1,2,3,4,a,10b-hexahydrophenanthridin-6-yl)-phenyl]-methanoyl}-N,N-diethylquanidine]: 89 to 91 °C.
For the compound `COc1cc2c(cc1OC)[C@H]1CCCC[C@H]1N=C2c1cccc(C(=O)NC(=N)N2CCOCC2)c1` [Compound 13, 3-((4aR,10bR)-8,9-Dimethoxy-1,2,3,4,4a,10b-hexahydrophenanthridin-6-yl)-N-(1-imino-1-morpholin-4yl-methyl)-benzamide], the melting point fell in the range of 187 to 188 °C.

Source of the values: patent US20060116518A1, “Novel phenanthridines” (Altana Pharma AG, priority 2002, published 2006).
